Laboratory results as given in patent US9034303B2, “Neuroprotective and neuro-restorative iron chelators and monoamine oxidase inhibitors and uses thereof” (priority 2010, dated 2015).
“Also recorded” adds a separate entry of the source. Where two headings read alike, the source gives them in different places. Marks after values point to notes of the source that are not given here.

Legend:
[1] = Stability in aqueous solution (PBS or saline) followed by HPLC; assay type: physicochemical; details: for Stability in aqueous solution (in words): PBS and/or saline solution; for Amount of compound remaining (%): 0.5 mM
Protocol: (§1) Using high pressure liquid chromatography (HPLC), the stability of each of the tested compounds was determined by following its respective chemical character over time in either phosphate buffered saline (PBS) and/or 0.85% saline solution (sodium chloride). In each case, 0.5 mM of the tested compound in PBS or saline solution was incubated at 25° C. or at 37° C. for 20 hours or, in some cases, up to two days (48 hours).

rat brain MAO-B = rat brain MAO-B (Rattus norvegicus (Rat), UniProt P19643); assay: In vitro inhibition of rat brain MAO-B (14C-PEA substrate); assay type: biochemical; details: for IC50: estimated from FIG. 2, rat brain MAO-B, read-out: MAO-B IC50
Protocol: (§2) Rats are decapitated and the brains quickly taken into a weighted ice-cold sucrose buffer (0.32 M) and their weights determined. All subsequent procedures are performed at 0° C. The brains are homogenized in 0.32 M sucrose (one part tissue to 20 parts sucrose) in a Teflon glass homogenizer followed by the addition of sucrose buffer to a final concentration of 10% homogenate. The homogenates are centrifuged at 600 g for 15 min. The supernatant fractions are taken out and centrifuged at 4500 g for 30 min, the pellet diluted in 0.32 M sucrose buffer and kept frozen for later assaying of MAO.
(§3) MAO-A and MAO-B activities are determined in rat brain homogenate in vitro following incubation with varying concentrations of the test compounds.
The in vitro inhibitory activity of the compounds is tested against rat brain MAO-B. The test compounds are added to buffer containing 10^−7 M clorgylin and are incubated with the tissue homogenate for 30 or 60 min at 37° C. before addition of ^14C-PEA.
(§4) The test compound was added to a suitable dilution of the enzyme preparation (70 μg protein for MAO-B and 150 μg MAO-A assay) in 0.1 M phosphate buffer (pH 7.4). The mixture was incubated together with […], a specific inhibitor of MAO-B (for determination of MAO-A) or 0.05 M clorgylin, a specific inhibitor of MAO-A (for determination of MAO-B). Incubation was carried for 0.5 or 1 h at 37° C. before addition of ^14C-5-hydroxytryptamine binoxalate (5-HT) (100 or 400 μM) for determination of MAO-A, or ^14C-phenylethylamine (^14C-PEA) 100 or 400 μM for determination of MAO-B, and incubation continued for 30 min or 20 min, respectively. The reaction was stopped with 2 M ice-cold citric acid, and the metabolites were extracted and determined by liquid-scintillation counting in cpm units.
The reaction was stopped with 2 M ice-cold citric acid, and the metabolites were extracted with ethyl acetate and levels of radioactivity were determined by liquid-scintillation counting in CPM units. All assays were performed at least in duplicate and outcome was expressed as a mean±SEM. Data were analyzed by a Student's t test. Variations were considered statistically significant at a p value of 0.05.
(§5) MAO-A and MAO-B activity was measured using radioactive substrates. The substrate for MAO-A was 5 HT and for MAO-B was PEA. When measuring the activity of MAO-A, the MAO-B activity was inhibited with deprenyl and when measuring the activity of MAO-B the activity of MAO-A was inhibited with clorgylin. Blank samples were produced using TCP to inhibit both of the enzymes. The metabolites were extracted to toluene and read in a β-counter. The results are expressed in relative activity and normalized to the amount of protein in the tissue.

rat brain MAO-A = rat brain MAO-A (Rattus norvegicus (Rat), UniProt P21396); assay: In vitro inhibition of rat brain MAO-A (14C-5-HT substrate); assay type: biochemical; details: for IC50: estimated from the data in FIG. 1, rat brain MAO-A, read-out: MAO-A IC50
Protocol: as §2, with “MAO. Protein concentration is determined with Bradford reagent at λ=595 nm, using BSA as a standard.” for “MAO.”
as §3
as §4, with “The activity of MAO-A and MAO-B was determined by the adapted method of Tipton & Youdim (Tipton K F, O'Sullivan J, Youdim M B, 1983, Encyclopedia of Neuroscience, 2004, G. Adelman and B. H. Smith, Elsevier). The test” for “The test”, “cpm units. […]” for “cpm units.”
as §5

[2] = Follow-up stability experiment at 37° C. in PBS; assay type: physicochemical
Protocol: as §1
In addition, in a follow-up experiment the instability of M30, and the stability of compounds 3, 7 and 8 was also confirmed at 37° C. in PBS, Table 2, below.

HepG2 cells = assay: Cytotoxicity in presence and absence of exogenous iron, HepG2; assay type: cell-based, human; details: iron alone, 20 μM
Protocol: (§6) The potential of compound 3 to be toxic in the presence of free iron was also tested. The iron complexation method was based on the method of Leanderson and Tagesson (Carcinogenesis, 17, 545-550, 1996) with some modifications. Iron (III) was prepared from ferric ammonium citrate (Sigma, F5879) at 80 mM in sterile distilled water. Compound 3 was prepared at a 200 mM concentration in DMSO. Before each experiment, the freshly prepared iron (III) solution was diluted to 0.4 mM in PBS II (PBS containing 0.90 mM Ca^2+ and 0.49 mM Mg^2+). Compound 3 stock solutions were diluted to 2, 0.2, and 0.02 mM with PBS II. Equal volumes of the 0.4 mM iron (III) solution and compound 3 solutions were added together to prepare iron/test article complex solutions containing 1, 0.1, and 0.01 mM compound 3 and 0.2 mM iron (III). The compound 3 DMSO stock solution was diluted in PBS II at 1, 0.1, or 0.01 mM and used as compound 3 control without iron. An equal volume of the 0.4 mM iron (III) solution was diluted in PBS II to prepare a control containing only iron.
(§7) The medium was removed from the plated cells (both cell lines) and replaced with fresh medium (90 μL). Iron/compound 3 complex or compound 3 in PBS II without iron was added to cells in triplicate (10 μL) to final compound 3 concentrations of 100, 10, and 1 μM and an iron (III) concentration of 20 μM. Wells containing no cells were used as the background control. PBS II was run as vehicle control. Iron only was run at a final concentration of 20 μM.
(§8) Cell viability was determined as described above and cytotoxicity was compared between treatments with and without iron complexation.

SHSY-5Y cells = assay: Cytotoxicity in presence and absence of exogenous iron, SH-SY5Y; assay type: cell-based, human; details: iron alone, 20 μM
Protocol: as §6, §7, §8

[3] = concentration 0.01 mM, rat brain extracts
[4] = concentration 0.1 mM, rat brain extracts

rat brain MAO-A, sequence (P21396 whole entry): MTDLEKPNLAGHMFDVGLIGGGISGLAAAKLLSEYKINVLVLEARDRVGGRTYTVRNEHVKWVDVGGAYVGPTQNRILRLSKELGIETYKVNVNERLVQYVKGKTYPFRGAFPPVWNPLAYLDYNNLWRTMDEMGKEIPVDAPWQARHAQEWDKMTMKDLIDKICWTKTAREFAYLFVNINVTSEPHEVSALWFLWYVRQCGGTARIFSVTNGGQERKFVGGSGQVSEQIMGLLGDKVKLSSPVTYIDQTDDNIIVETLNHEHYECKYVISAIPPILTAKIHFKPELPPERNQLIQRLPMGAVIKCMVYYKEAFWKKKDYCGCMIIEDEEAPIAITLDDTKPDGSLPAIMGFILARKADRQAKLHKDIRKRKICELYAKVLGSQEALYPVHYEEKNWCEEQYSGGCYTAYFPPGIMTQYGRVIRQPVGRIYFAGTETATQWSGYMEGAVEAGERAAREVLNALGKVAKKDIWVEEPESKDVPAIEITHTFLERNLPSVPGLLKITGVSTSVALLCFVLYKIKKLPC
rat brain MAO-B, sequence (P19643 whole entry): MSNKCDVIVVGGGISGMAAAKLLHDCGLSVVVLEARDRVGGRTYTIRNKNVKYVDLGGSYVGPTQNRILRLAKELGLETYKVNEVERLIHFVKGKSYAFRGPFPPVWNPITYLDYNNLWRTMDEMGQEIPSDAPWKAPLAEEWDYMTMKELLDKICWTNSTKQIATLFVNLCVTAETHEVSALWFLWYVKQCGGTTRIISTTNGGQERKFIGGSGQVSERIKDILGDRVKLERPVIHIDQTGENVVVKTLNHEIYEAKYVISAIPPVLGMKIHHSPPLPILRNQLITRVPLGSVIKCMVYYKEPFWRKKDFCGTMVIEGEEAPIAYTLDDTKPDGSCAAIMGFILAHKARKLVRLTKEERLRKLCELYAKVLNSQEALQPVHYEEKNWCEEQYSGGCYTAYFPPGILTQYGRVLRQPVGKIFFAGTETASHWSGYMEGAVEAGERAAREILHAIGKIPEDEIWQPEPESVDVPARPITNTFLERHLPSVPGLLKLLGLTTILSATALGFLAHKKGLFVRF

SMILES: C#CCN(C)C(C)c1ccc(O)c2ncccc12 (stereo not shown) [5-(1-(methyl(prop-2-ynyl) amino)ethyl)quinolin-8-ol]
- Stability in aqueous solution (in words) [1]: **Decomposition of 5-(1-(methyl(prop-2-ynyl) amino)ethyl)quinolin-8-ol occurred immediately upon dissolution in PBS aspredicted by the working hypothesis

SMILES: C#CCN(C)C(C)c1ccc(O)c2ncccc12 (stereo not shown) [5-(1-(methyl(prop-2-ynyl)amino)ethyl)quinolin-8-ol] [5-[1-(methyl-2-propyn-1-ylamino)ethyl]-8-quinolinol]
- Stability in aqueous solution (in words) [1]: decomposed immediately
- Amount of compound remaining (%) ([1]; PBS, 25° C., 0.5 hours): 0.0** %

SMILES: C#CCN(C)CCCc1ccc(O)c2ncccc12 [Compound 4, 5-[3-(methyl-2-propyn-1-ylamino)propyl]-8-quinolinol]
- IC50 (rat brain MAO-B): 100 nM
- Inhibition of rat brain MAO-B in vitro (in words) (rat brain MAO-B): potent inhibitors
- IC50 (rat brain MAO-A; listed as compound 4): ~200 nM
- IC50 (rat brain MAO-A): 200 nM
- Inhibition of rat brain MAO-A in vitro (in words) (rat brain MAO-A): potent inhibitors
- Stability in aqueous solution (in words) [1]: highly stable chemically
- Amount of compound remaining (%) ([1]; PBS, 25° C., 0.5 hours): 100%
- Amount of compound remaining (%) ([1]; PBS, 25° C., 2 hours): 100%
- Amount of compound remaining (%) ([1]; PBS, 25° C., 20 hours): 100%
- Amount of compound remaining (%) ([1]; PBS, 25° C., 48 hours): 100%
- Amount of compound remaining (%) ([1]; saline, 25° C., 0.5 hours): 100%
- Amount of compound remaining (%) ([1]; saline, 25° C., 2 hours): 100%
- Amount of compound remaining (%) ([1]; saline, 25° C., 20 hours): 100%
- Amount of compound remaining (%) ([1]; saline, 25° C., 48 hours): 100%

SMILES: C#CCN(C)CCc1cc(C2CC2)c(O)c2ncccc12 [Compound 7, 7-cyclopropyl-5-[2-(methyl-2-propyn-1-ylamino)ethyl]-8-quinolinol]
- Amount of compound remaining (%) ([2]; 3 hours): 99.7%
- Amount of compound remaining (%) ([2]; 8 hours): 97.7%
- Amount of compound remaining (%) ([2]; 24 hours): 94.1%
- Amount of compound remaining (%) ([2]; 48 hours): 100%

SMILES: C#CCN(C)CCc1cc(F)c(O)c2ncccc12 [Compound 8, 7-fluoro-5-[2-(methyl-2-propyn-1-ylamino)ethyl]-8-quinolinol]
- Amount of compound remaining (%) ([2]; 3 hours): ≧100%
- Amount of compound remaining (%) ([2]; 8 hours): 96.7%
- Amount of compound remaining (%) ([2]; 24 hours): ≧100%
- Amount of compound remaining (%) ([2]; 48 hours): ≧100%

SMILES: [Fe+3] [Iron]
- HepG2 cell death (%) (HepG2 cells): 1.6%
- SHSY-5Y cell death (%) (SHSY-5Y cells): −1.0%

SMILES: C#CCN(C)Cc1ccc(OC)c2ncccc12 [O-Methyl-M30]
- inhibition at 10 µM (rat brain MAO-B; [3]): 87.8%
- inhibition at 100 µM (rat brain MAO-B; [4]): 97.3%
- IC50 (rat brain MAO-B): 20 to 40 nM
- Inhibition of rat brain MAO-B in vitro (in words) (rat brain MAO-B): potent inhibitors
- Inhibition of rat brain MAO-B in vitro (in words) (rat brain MAO-B; listed as O-methyl M30): inhibits both brain MAO-A and MAO-B at apparently similar levels
- inhibition at 10 µM (rat brain MAO-A; [3]): 98.5%
- inhibition at 100 µM (rat brain MAO-A; [4]): 99.7%
- IC50 (rat brain MAO-A): 250 to 300 nM
- Inhibition of rat brain MAO-A in vitro (in words) (rat brain MAO-A): potent inhibitors
- Inhibition of rat brain MAO-A in vitro (in words) (rat brain MAO-A; listed as O-methyl M30): inhibits both brain MAO-A and MAO-B at apparently similar levels

SMILES: C#CCN(C)CCc1ccc(OC)c2ncccc12 [[O-Methyl-Compound 3], 8-methoxy-N-methyl-N-2-propyn-1-yl-5-quinolineethanamine]
- Stability in aqueous solution (in words) [1]: highly stable chemically; also recorded: stable in PBS at 37 °C for at least two days
- Amount of compound remaining (%) ([1]; PBS, 25° C., 0.5 hours): 100%
- Amount of compound remaining (%) ([1]; PBS, 25° C., 2 hours): 100%
- Amount of compound remaining (%) ([1]; PBS, 25° C., 20 hours): 100%
- Amount of compound remaining (%) ([1]; PBS, 25° C., 48 hours): 100%
- Amount of compound remaining (%) ([1]; saline, 37° C., 0.5 hours): 100%
- Amount of compound remaining (%) ([1]; saline, 37° C., 2 hours): 100%
- Amount of compound remaining (%) ([1]; saline, 37° C., 20 hours): 100%
- Amount of compound remaining (%) ([1]; saline, 37° C., 48 hours): 100%
